1 compound from patent US6046231A, “Use of 4'-bromoflavone in a cancer chemopreventative composition and method” (The Board of Trustees of the University of Illinois, priority 1999, dated 2000) can be followed below.

Assay [1] has as its system GST Yb (μ class). The assay is described as follows: Western blot of GST Yb (μ-type) expression in H4IIE cells. Particulars: for GST Yb (μ) induction: H4IIE cells. Format: cell-based, rat. The procedure: Western Blot Analysis Glutathione S-transferase Expression. Cultured H4IIE rat hepatoma cells were treated with test agent with various concentrations or various time points. […] Cells were harvested using SDS lysis buffer (20 mM Tris-Cl, pH 6.8, containing 0.4% SDS (w/v), 4% glycerol, 0.24 M β-mercaptoethanol, and 0.5% bromphenol) and the lysates were boiled for 5 minutes, then stored at -20° C. An aliquot of lysate was used for protein determination using a bicichoninic acid protein assay kit with BSA as a standard. Equivalent amounts of protein were electrophoresed by SDS-PAGE on precast 12.5% Tris-glycine acrylamide gels (Novex, San Diego, Calif.), then transferred to polyvinylidene difluoride (PDVF) membranes. Nonspecific binding sites were blocked with 10% nonfat dry milk and blotting was performed with goat polyclonal antirat GSTYa (α class) IgG or antirat, GSTYb (μ class) IgG and analyzed by alkaline phosphatase-conjugated antigoat IgG secondary antibody (Oxford Biomed Research, Inc.) and quantified using an AP 20 Alkaline Phosphatase Kit detection system (Oxford Biomed Research, Inc.).
Induction of Expression of Glutathione S-transferase Ya (α-type) and Yb (μ-type) in Cell Cultures. […] To date, the superfamily of mammalian cytosolic GST isozymes has been defined genetically to consist of four classes; α, μ, π, and θ, which differ in tissue-specificexpression and distribution, as well as substrate specificity. […] Cultured H4IIE cells were treated either with 10 μM of 4'-BF (FIG. 7B) or sulforaphane for 0, 2, 4, 8, 16, 24, and 48 hours for a time-dependent study, or with 0.16, 0.8, 4, 10, 20, and 50 μM of 4'-BF (FIG. 7A) or sulforaphane for 24 hr for a dose-dependent study (FIG. 7A). The expressions of two major detoxification isoforms of GSTs (GST Ya: α-type, and GST Yb: μ-type) mediated by 4'-BF or sulforaphane were investigated in H4EII rat hepatoma cells using Western blotting technique.

Assay [2] relates to pDTD-1097CAT construct (QR gene 5'-region), HepG2 cells. In words: CAT expression in HepG2 cells transfected with pDTD-1097CAT. Type of assay: cell-based, human cells; rat QR gene. Conditions: 10 μM, 48 h; p<0.0001. The procedure:
Transcient Transfection Gene Expression Assay. Cultured HepG2 human hepatoma cells were transfected with three plasmid constructs (PDTD-1697CAT, XRE-CAT, ARE-CAT) containing various portions of the 5'-region of the QR gene fused to the CAT gene using the calcium phosphate precipitation method (J. Sambrook et al., Molecular cloning: A Laboratory Handbook, Ed. Chris Nolan, CHS Laboratory Press, 1989). After 4 hours of transfection, the cells were treated with 10% glycerol for 3 minutes and rinsed with PBS and switched to MEM, containing 100 units/ml penicillin G sodium, 100 units/ml streptomycin sulfate, nonessential amino acids, and 1 mM sodium pyruvate (Life Technologies Inc.) supplemented with 10% fetal bovine serum for 12-16 hours recovery. Then, test agents were added to the cells. After 48 hours of treatment with the test agents, cells were harvested with lysis buffer (Boehringer Mannheim Biochemical) and CAT protein expressions were assessed using a CAT ELISA kit (Boehringer Mannheim Biochemical). […] All data were expressed as mean +/- SD. […]
In particular, FIG. 1 illustrates quantitation of CAT expression in HepG2 cells transfected with QR-CAT constructs. […] CAT expression (ng CAT/mg protein) was determined using a CAT ELISA, and the ratio of CAT expression between treated and control cells was calculated (ratio=treated/control).

Assay [3] has as its system quinone reductase (QR). In words: QR activity in rat tissues after dietary administration. Format: in vivo, Sprague Dawley rat. The procedure:
Analysis of Quinone Reductase Activity and Glutathione Level in Rat Tissues. Spraque Dawley rats (n=10) at 43 days of age were placed on an appropriate experimental diet (5000, 2500, 1250, 625, and 312.5 mg/kg diet of 4'-BF) for three weeks. After three weeks, animals were sacrificed by carbon dioxide (CO2) asphyxiation. The livers, mammary glands, colons, stomachs, and lungs were collected, rinsed with saline, and frozen in liquid nitrogen and stored at -80° C. until enzyme activities were determined. Individual tissues (except mammary glands) were homogenized in 0.25 M sucrose and centrifuged at 15,000×g for 30 min at 4° C. The supernatant fluids were collected, 20% volume of 0.1 M CaCl2 in 0.25 M sucrose were added. After incubation at 0° C. for 30 min and further centrifuging at 15,000×g for 30 min at 4° C., a clear cytosolic fraction was used for enzyme assay. Mammary glands of each animal were pooled, homogenized in 1 ml ice-cold 0.1 M phosphate buffer pH 6.5 and centrifuged (15,000×g, 30 min at 4° C.), a clear supernatant suitable for enzyme assay resulted. Dicumarol-sensitive QR activity was measured in duplicate in 50 μl of suitable dilution of the tissue supernatant as described for the cellular system. GSH levels were assayed in duplicate using 96-well plates. […] The plates were shaken for 5-10 min and the extent of 2-nitro-5-thiobenzoic acid formation was monitored at 405 nm. A GSH standard curve was used to calculate the GSH content. GSH levels were expressed as nmol/mg protein.
Induction of Quinone Reductase Activity and Glutathione Level in Rat Tissues. Based on the results in cell cultures, 4'-BF was further evaluated for its inducing potency in rat liver, mammary gland, colon, stomach, and lung. […] The concentration of 4'-BF for maximum induction of GSH was about 1250 to about 2500 mg/kg diet, but varied for different organ sites.

On to `O=c1cc(-c2ccc(Br)cc2)oc2ccccc12` [4'-Bromoflavone], for which the “maximum induction time, GST Yb” value in assay [1] (10 μM, 0-48 h) is 16 to 24 h. Further, the “maximum induction concentration, GST Yb” value in assay [1] (0.16-50 μM, 24 h) lay in the range of 10 to 20 µM. The “GST Yb (μ) induction” value is listed as “effectively induced” in assay [1] and “induced by 4'-BF in a time, dose-dependent manner” in assay [1] (listed as 4'-BF). The “CAT expression, pDTD-1097CAT” value in assay [2] is “significantly (p<0.0001) induced”. In addition, in assay [3] (colon, 312.5-5000 mg/kg diet, 3 weeks), the “QR activity induction, colon” value was 2.09-4.81 fold. Also, the “QR activity in rat tissues” value in assay [3] (liver, mammary gland, colon, stomach, lung, short-term dietary, P<0.0001) is reported as “significantly increased”. For the same compound, the “QR activity induction, liver” value in assay [3] (liver, 312.5-5000 mg/kg diet, 3 weeks) is on record as 2.22-7.60 fold. The “QR activity induction, lung” value in assay [3] (lung, 312.5-5000 mg/kg diet, 3 weeks) is on record as 2.18-5.25 fold. Moreover, the “QR activity induction, mammary gland” value in assay [3] (mammary gland, 312.5-5000 mg/kg diet, 3 weeks) is on record as 1.59-5.52 fold. Further, the “QR activity induction, stomach” value in assay [3] (stomach, 312.5-5000 mg/kg diet, 3 weeks) was 1.97-3.42 fold.
